Reference: the supplement of paper PMC9912026
± gives the uncertainty stated by the source.

Test system: A375
Experiment: pERK immunofluorescence, normalised; higher = more ERK phosphorylation
Settings: vemurafenib 0 µM, drug treatment time 24 h
Description: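 A375 or A375 CRISPRa-EGFR (A375_Cra_F7_5/13) cells were adapted for 24 h to a cobimetinib dose series, with or without 1 uM vemurafenib, then stimulated with EGF (100 ng/mL) or mock medium and fixed at the indicated times. pERK was measured by immunofluorescence as the population mean normalised to baseline, with the SD of technical replicates (n=2).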

O=C(c1ccc(F)c(F)c1Nc1ccc(I)cc1F)N1CC(O)([C@@H]2CCCCN2)C1 [cobimetinib]
pERK immunofluorescence
Settings | cobimetinib 31.62 pM | cobimetinib 0.0001 µM | cobimetinib 0.000316228 µM | cobimetinib 0.001 µM | cobimetinib 0.003162278 µM | cobimetinib 0.01 µM | cobimetinib 0.031622777 µM | cobimetinib 0.1 µM | cobimetinib 0.316227766 µM | cobimetinib 1 µM
EGF 0 ng/mL, time after EGF/mock 0.083 h | 0.965 ± 0.018 | 0.9579 ± 0.0028 | 0.873 ± 0.041 | 0.658 ± 0.028 | 0.313 ± 0.0071 | 0.16 ± 0.0032 | 0.1379 ± 0.0011 | 0.13 ± 0.0026 | 0.1264 ± 0.00022 | 0.1263 ± 0.00091
EGF 0 ng/mL, time after EGF/mock 0.5 h | 0.9998 ± 0.0072 | 0.958 ± 0.029 | 0.8944 ± 0.008 | 0.679 ± 0.0098 | 0.306 ± 0.013 | 0.157 ± 0.0021 | 0.135 ± 0.0013 | 0.1283 ± 0.00077 | 0.1262 ± 0.00025 | 0.126 ± 0.0013
EGF 0 ng/mL, time after EGF/mock 2 h | 0.961 ± 0.033 | 0.958 ± 0.053 | 0.904 ± 0.014 | 0.746 ± 0.025 | 0.358 ± 0.057 | 0.152 ± 0.0073 | 0.1311 ± 0.00015 | 0.1245 ± 0.00041 | 0.1235 ± 0.00032 | 0.1235 ± 0.00061
EGF 0 ng/mL, time after EGF/mock 8 h | 0.97332 ± 0.0006 | 0.972 ± 0.02 | 0.93 ± 0.011 | 0.7507 ± 0.0056 | 0.312 ± 0.032 | 0.132 ± 0.0023 | 0.1135 ± 0.001 | 0.113 ± 0.0043 | 0.105 ± 0.0012 | 0.1046 ± 0.00065
EGF 0 ng/mL, time after EGF/mock 24 h | 0.962 ± 0.021 | 0.985 ± 0.085 | 0.952 ± 0.037 | 0.817 ± 0.045 | 0.399 ± 0.058 | 0.1129 ± 0.00064 | 0.10189 ± 7.8e-06 | 0.103 ± 0.0015 | 0.1021 ± 0.00052 | 0.0982 ± 0.0013
EGF 100 ng/mL, time after EGF/mock 0.083 h | 1.19 ± 0.033 | 1.2 ± 0.04 | 1.133 ± 0.0081 | 1.18 ± 0.0047 | 1.39 ± 0.057 | 1.4 ± 0.028 | 1.37 ± 0.015 | 1.04 ± 0.03 | 0.268 ± 0.022 | 0.134 ± 0.0014
EGF 100 ng/mL, time after EGF/mock 0.5 h | 1.03 ± 0.057 | 1.03 ± 0.005 | 0.9538 ± 0.0018 | 0.887 ± 0.013 | 0.782 ± 0.024 | 0.594 ± 0.017 | 0.411 ± 0.015 | 0.333 ± 0.0083 | 0.336 ± 0.0073 | 0.144 ± 0.0022
EGF 100 ng/mL, time after EGF/mock 2 h | 0.959 ± 0.028 | 0.965 ± 0.052 | 0.891 ± 0.015 | 0.782 ± 0.013 | 0.4241 ± 0.0024 | 0.176 ± 0.003 | 0.136 ± 0.0016 | 0.1271 ± 0.00033 | 0.1234 ± 0.00085 | 0.12285 ± 0.00011
EGF 100 ng/mL, time after EGF/mock 8 h | 0.946 ± 0.016 | 0.9729 ± 0.00013 | 0.909 ± 0.046 | 0.786 ± 0.042 | 0.487 ± 0.036 | 0.168 ± 0.012 | 0.124 ± 0.0018 | 0.114 ± 0.0024 | 0.1065 ± 0.00016 | 0.1039 ± 0.00017
EGF 100 ng/mL, time after EGF/mock 24 h | 0.8607 ± 0.0067 | 0.897 ± 0.04 | 0.854 ± 0.023 | 0.773 ± 0.0081 | 0.518 ± 0.007 | 0.128 ± 0.0053 | 0.1071 ± 0.00016 | 0.1048 ± 0.00075 | 0.104 ± 0.00095 | 0.0978 ± 0.0009
